# Reference: patent publication US20100040628A1 (OsteoGeneX, Inc, priority 2008, published 2010)
# Columns and labels:
# [1] = test system: mouse; assay: Mouse bone formation assay, micro-CT examination of test vs control animals; format: in vivo; details: predetermined dose for a complete dosing schedule, vs control solution
# Source text: Compounds useful in the methods of the present invention can be identified via a variety of methods known to one of skill in the art. Several exemplary methods for identifying such antagonists are described herein, including cell-based and in vitro techniques (Journal of Bone and Mineral Research 2006, 21(11), 1738-1749). A general method of identifying SOST antagonists involves evaluating the effects of antagonist candidates on bone formation under controlled conditions. Preferably bone formation is determined using micro-CT techniques on live animals. Preferred animals include rodents, more preferred are primates. Femur, tibia and vertebrae bones are particularly useful subjects for such study.
# Briefly, the test animal is treated with a predetermined dose of a SOST antagonist candidate. […]
# Once the dosing schedule has been completed, both test and control animals are examined to determine the quantity of bone formation present. […] Where necessary, levels of bone formation can be calculated by determining the volume of bone formation present in each animal. […]
# For example, the mouse test animal is treated with a predetermined dose of a SOST antagonist candidate for a complete dosing schedule. […] Once the dosing schedule has been completed, both test and control animals are examined with sacrifice using micro-CT to determine the quantity of bone formation present.
# [2] = test system: Wnt pathway; assay: Wnt pathway modulation to promote bone growth (FIG. 1); details: doses of 2.5 ng (low), 60 ng (medium), 125 ng (high) and 1250 ng (very high)
# Protocol: For example, the mouse test animal is treated with a predetermined dose of a SOST antagonist candidate for a complete dosing schedule. A control mouse is treated with a control solution, preferably a non-irritating buffer solution or other carrier. Once the dosing schedule has been completed, both test and control animals are examined with sacrifice using micro-CT to determine the quantity of bone formation present.
# [3] = test system: C57BL/6 mice; assay: Bone growth with indoprofen: pQCT analysis on the femur after 30 days of daily treatment; format: in vivo, mouse; details: four month old male C57BL/6 mice, 2 mg/kg i.p. daily for 30 days, FIG. 2
# Protocol: Four month old male C57BL/6 mice were treated daily with saline vehicle or the sclerostin inhibitor of indoprofen at 2 mg/kg (via i.p) for 30 days. Study endpoints included measurement of trabecular bone mineral content and bone mineral density by pQCT analysis on the femur.
structure (smiles),measurement,setting,value
CC(C(=O)O)c1ccc(N2Cc3ccccc3C2=O)cc1 (stereo not shown) [indoprofen],promotion of bone growth (quantity of bone formation by micro-CT),[1],promoting bone growth
same,modulation of the Wnt pathway to promote bone growth,[2],modulating the Wnt pathway to promote bone growth
same,increase for trabecular bone mineral density (BMD),[3]; pQCT on femur,greater than 2%
same,increase in bone mineral content (BMC) for the femur over baseline controls,[3]; pQCT,greater than 6%
